In PubChem BioAssay (NCI):
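Interpolation was linear, between the two tested concentrations surrounding the appropriate level; five concentrations were tested over 48 hours in 96-well plates. TGI: concentration producing complete growth inhibition.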

Assays:
Assay in all cases: inhibition of tumour cell growth, NCI panel, 48 h
[1] = system: 786-0 renal
[2] = system: A498 renal
[3] = system: A549 NSCLC
[4] = system: ACHN renal
[5] = system: BT-549 breast
[6] = system: CAKI-1 renal
[7] = system: CCRF-CEM leukemia
[8] = system: COLO 205 colon
[9] = system: DU-145 prostate
[10] = system: EKVX NSCLC
[11] = system: HCT-116 colon
[12] = system: HCT-15 colon
[13] = system: HOP-62 NSCLC
[14] = system: HOP-92 NSCLC
[15] = system: HS 578T breast
[16] = system: HT29 colon
[17] = system: IGROV1 ovarian
[18] = system: K-562 leukemia
[19] = system: KM12 colon
[20] = system: LOX IMVI melanoma
[21] = system: M14 melanoma
[22] = system: MALME-3M melanoma
[23] = system: MDA-MB-231 breast
[24] = system: MDA-MB-435
[25] = system: MDA-N
[26] = system: MOLT-4 leukemia
[27] = system: NCI-H226 lung
[28] = system: NCI-H23 lung
[29] = system: NCI-H522 lung
[30] = system: NCI/ADR-RES ovarian
[31] = system: OVCAR-3 ovarian
[32] = system: OVCAR-4 ovarian
[33] = system: OVCAR-5 ovarian
[34] = system: OVCAR-8 ovarian
[35] = system: PC-3 prostate
[36] = system: RPMI-8226 leukemia
[37] = system: RXF 393 renal
[38] = system: SF-268 CNS
[39] = system: SF-295 CNS
[40] = system: SK-MEL-2 melanoma
[41] = system: SK-MEL-28 melanoma
[42] = system: SK-MEL-5 melanoma
[43] = system: SK-OV-3 ovarian
[44] = system: SN12C renal
[45] = system: SNB-19 CNS
[46] = system: SNB-75 CNS
[47] = system: SW-620 colon
[48] = system: T-47D breast
[49] = system: TK-10 renal
[50] = system: U251 CNS
[51] = system: UACC-257 melanoma
[52] = system: UACC-62 melanoma
[53] = system: UO-31 renal
[54] = system: HCC-2998 colon
[55] = system: HL-60(TB) leukemia
[56] = system: MCF7 breast
[57] = system: NCI-H460 lung
[58] = system: SF-539 CNS
[59] = system: SR leukemia

**Q.** What does the source list for `Cc1ccccc1N=Nc1cc(C)c(N=Nc2c(O)ccc3ccccc23)cc1C`?
**A.** TGI [1]: > 100 µM; TGI [2]: > 100 µM; TGI [3]: > 100 µM; TGI [4]: > 100 µM; TGI [5]: > 100 µM; TGI [6]: > 100 µM; TGI [7]: > 100 µM; TGI [8]: > 100 µM; TGI [9]: > 100 µM; TGI [10]: > 100 µM; TGI [11]: > 100 µM; TGI [12]: > 100 µM; TGI [13]: > 100 µM; TGI [14]: > 100 µM; TGI [15]: > 100 µM; TGI [16]: > 100 µM; TGI [17]: > 100 µM; TGI [18]: > 100 µM; TGI [19]: > 100 µM; TGI [20]: > 100 µM; TGI [21]: > 100 µM; TGI [22]: > 100 µM; TGI [23]: > 100 µM; TGI [24]: > 100 µM; TGI [25]: > 100 µM; TGI [26]: > 100 µM; TGI [27]: > 100 µM; TGI [28]: > 100 µM; TGI [29]: > 100 µM; TGI [30]: > 100 µM; TGI [31]: > 100 µM; TGI [32]: > 100 µM; TGI [33]: > 100 µM; TGI [34]: > 100 µM; TGI [35]: > 100 µM; TGI [36]: > 100 µM; TGI [37]: > 100 µM; TGI [38]: > 100 µM; TGI [39]: > 100 µM; TGI [40]: > 100 µM; TGI [41]: > 100 µM; TGI [42]: > 100 µM; TGI [43]: > 100 µM; TGI [44]: > 100 µM; TGI [45]: > 100 µM; TGI [46]: > 100 µM; TGI [47]: > 100 µM; TGI [48]: > 100 µM; TGI [49]: > 100 µM; TGI [50]: > 100 µM; TGI [51]: > 100 µM; TGI [52]: > 100 µM; TGI [53]: > 100 µM

**Q.** `COc1ccccc1N1C(=O)C2C3c4ccccc4C(OC(C)=O)(c4ccccc43)C2C1=O` (stereo not given) was tested. Which TGI [1] did it give?
**A.** > 100 µM

**Q.** And the TGI [2]?
**A.** > 100 µM

**Q.** And the TGI [3]?
**A.** > 100 µM

**Q.** What about the TGI [4] of the same compound?
**A.** > 100 µM

**Q.** And the TGI [5]?
**A.** > 100 µM

**Q.** And the TGI [6]?
**A.** > 100 µM

**Q.** And the TGI [7]?
**A.** > 100 µM

**Q.** And the TGI [8]?
**A.** > 100 µM

**Q.** What about the TGI [9] of the same compound?
**A.** > 100 µM

**Q.** What about the TGI [10] of the same compound?
**A.** > 100 µM

**Q.** What about the TGI [54] of the same compound?
**A.** > 100 µM

**Q.** What about the TGI [11] of the same compound?
**A.** > 100 µM

**Q.** And the TGI [12]?
**A.** > 100 µM

**Q.** What about the TGI [55] of the same compound?
**A.** > 100 µM

**Q.** What about the TGI [13] of the same compound?
**A.** > 100 µM

**Q.** And the TGI [15]?
**A.** 52.1 µM

**Q.** And the TGI [16]?
**A.** > 100 µM

**Q.** And the TGI [17]?
**A.** > 100 µM

**Q.** And the TGI [18]?
**A.** > 100 µM

**Q.** What about the TGI [19] of the same compound?
**A.** > 100 µM

**Q.** What about the TGI [20] of the same compound?
**A.** > 100 µM

**Q.** What about the TGI [21] of the same compound?
**A.** > 100 µM

**Q.** What about the TGI [22] of the same compound?
**A.** > 100 µM

**Q.** And the TGI [56]?
**A.** > 100 µM

**Q.** And the TGI [23]?
**A.** > 100 µM

**Q.** What about the TGI [25] of the same compound?
**A.** > 100 µM

**Q.** And the TGI [26]?
**A.** > 100 µM

**Q.** And the TGI [27]?
**A.** > 100 µM

**Q.** And the TGI [28]?
**A.** > 100 µM

**Q.** And the TGI [57]?
**A.** > 100 µM

**Q.** What about the TGI [30] of the same compound?
**A.** > 100 µM

**Q.** What about the TGI [31] of the same compound?
**A.** > 100 µM

**Q.** What about the TGI [32] of the same compound?
**A.** > 100 µM

**Q.** And the TGI [33]?
**A.** > 100 µM

**Q.** What about the TGI [34] of the same compound?
**A.** > 100 µM

**Q.** And the TGI [35]?
**A.** > 100 µM

**Q.** What about the TGI [36] of the same compound?
**A.** > 100 µM

**Q.** And the TGI [37]?
**A.** > 100 µM

**Q.** What about the TGI [38] of the same compound?
**A.** > 100 µM

**Q.** And the TGI [39]?
**A.** > 100 µM

**Q.** And the TGI [58]?
**A.** > 100 µM

**Q.** What about the TGI [41] of the same compound?
**A.** > 100 µM

**Q.** What about the TGI [42] of the same compound?
**A.** > 100 µM

**Q.** What about the TGI [43] of the same compound?
**A.** > 100 µM

**Q.** What about the TGI [44] of the same compound?
**A.** > 100 µM

**Q.** What about the TGI [45] of the same compound?
**A.** > 100 µM

**Q.** And the TGI [46]?
**A.** 38.8 µM

**Q.** What about the TGI [59] of the same compound?
**A.** > 100 µM

**Q.** What about the TGI [47] of the same compound?
**A.** > 100 µM

**Q.** And the TGI [48]?
**A.** > 100 µM

**Q.** And the TGI [49]?
**A.** > 100 µM

**Q.** And the TGI [50]?
**A.** > 100 µM

**Q.** And the TGI [51]?
**A.** > 100 µM

**Q.** And the TGI [52]?
**A.** > 100 µM

**Q.** And the TGI [53]?
**A.** > 100 µM

**Q.** With `COC(=O)/C=C\n1ncc(=O)[nH]c1=O` as the compound, how does the TGI [2] read?
**A.** > 100 µM

**Q.** And the TGI [3]?
**A.** > 100 µM

**Q.** And the TGI [4]?
**A.** > 100 µM

**Q.** What about the TGI [5] of the same compound?
**A.** > 100 µM

**Q.** And the TGI [6]?
**A.** > 100 µM

**Q.** What about the TGI [8] of the same compound?
**A.** > 100 µM

**Q.** And the TGI [9]?
**A.** > 100 µM

**Q.** And the TGI [10]?
**A.** > 100 µM

**Q.** And the TGI [54]?
**A.** > 100 µM

**Q.** What about the TGI [12] of the same compound?
**A.** > 100 µM

**Q.** And the TGI [55]?
**A.** > 100 µM

**Q.** And the TGI [13]?
**A.** > 100 µM

**Q.** What about the TGI [14] of the same compound?
**A.** > 100 µM

**Q.** And the TGI [15]?
**A.** > 100 µM

**Q.** What about the TGI [16] of the same compound?
**A.** > 100 µM

**Q.** And the TGI [17]?
**A.** > 100 µM

**Q.** What about the TGI [18] of the same compound?
**A.** > 100 µM

**Q.** What about the TGI [21] of the same compound?
**A.** > 100 µM

**Q.** What about the TGI [22] of the same compound?
**A.** > 100 µM

**Q.** What about the TGI [23] of the same compound?
**A.** > 100 µM

**Q.** And the TGI [24]?
**A.** > 100 µM

**Q.** What about the TGI [25] of the same compound?
**A.** > 100 µM

**Q.** And the TGI [26]?
**A.** > 100 µM

**Q.** What about the TGI [27] of the same compound?
**A.** > 100 µM

**Q.** And the TGI [28]?
**A.** > 100 µM

**Q.** And the TGI [57]?
**A.** > 100 µM

**Q.** What about the TGI [29] of the same compound?
**A.** > 100 µM

**Q.** And the TGI [30]?
**A.** > 100 µM

**Q.** What about the TGI [31] of the same compound?
**A.** > 100 µM

**Q.** And the TGI [32]?
**A.** > 100 µM

**Q.** What about the TGI [33] of the same compound?
**A.** > 100 µM

**Q.** And the TGI [34]?
**A.** > 100 µM

**Q.** And the TGI [35]?
**A.** > 100 µM

**Q.** What about the TGI [36] of the same compound?
**A.** > 100 µM

**Q.** What about the TGI [38] of the same compound?
**A.** > 100 µM

**Q.** What about the TGI [40] of the same compound?
**A.** > 100 µM

**Q.** What about the TGI [41] of the same compound?
**A.** > 100 µM

**Q.** What about the TGI [42] of the same compound?
**A.** > 100 µM

**Q.** What about the TGI [44] of the same compound?
**A.** > 100 µM

**Q.** And the TGI [45]?
**A.** > 100 µM

**Q.** And the TGI [46]?
**A.** > 100 µM

**Q.** What about the TGI [47] of the same compound?
**A.** > 100 µM

**Q.** What about the TGI [48] of the same compound?
**A.** > 100 µM

**Q.** And the TGI [49]?
**A.** > 100 µM

**Q.** And the TGI [50]?
**A.** > 100 µM

**Q.** And the TGI [51]?
**A.** > 100 µM

**Q.** What about the TGI [53] of the same compound?
**A.** > 100 µM
